Test results published in article PMC5502055, “Phase II study of lanreotide autogel in Japanese patients with unresectable or metastatic well-differentiated neuroendocrine tumors” (Investigational New Drugs, 2017).
Where two headings read alike, the source gives them in different places.

How the values were obtained:
[1] = Pharmacokinetics: serum lanreotide concentration (radioimmunoassay); format: in vivo, human
Protocol: (§1) Full analysis set (FAS) and CLARINET-like FAS which was satisfied eligibility criteria of the CLARINET study were used for efficacy analysis. Safety analysis set which included patients who had received the study drug at least once was used for safety analysis. Per protocol set (PPS) was used for pharmacokinetic analysis.
Regarding pharmacokinetics evaluations, serum lanreotide concentrations were determined on the day of first administration (before and 2 and 4 h after administration of the study drug) and at 4, 8, 12, 16, and 20 (before and 2 and 4 h after administration of the study drug), 24, 36, and 48 weeks after the start of administration (or at the time of discontinuation). Serum lanreotide concentrations were centrally determined using a validated radioimmunoassay (RIA; Kymos Pharma Services S.L., Barcelona, Spain).

[2] = system: Japanese patients with grade (G) 1/G2 NET; assay: Safety: adverse events (NCI-CTCAE ver. 4.0); format: in vivo, human; conditions: for Adverse events (any): N=32
Protocol: (§2) For the safety evaluation, adverse events (AEs) were recorded after the first injection until the point of data cutoff (December 2015) in the extension study. AE severity was assessed according to the National Cancer Institute Common Terminology Criteria for Adverse Events (NCI-CTCAE) ver. 4.0. Gallbladder echography and blood evaluations, including serum anti-lanreotide antibody tests were performed every 12 weeks during the 48 -week period after the first injection, and every 24 weeks thereafter.
as §1
Safety was evaluated using results which obtained by the data in the phase II and extension studies up to the time of data cutoff. The maximum exposure period from baseline to the time of data cutoff was 100.0 weeks (median, 87.3 weeks), and the mean exposure period (SD) was 83.1 weeks (15.2 weeks).
Adverse events were evaluated using the National Cancer Institute Common Terminology Criteria for Adverse Events (NCI-CTCAE), ver. 4.0.

[3] = system: Japanese patients with grade (G) 1/G2 NET; assay: Post hoc analysis of tumor growth rate (TGR); format: in vivo, human; set-up: key to TGR (0-Last): % change in tumor volume per month; conditions: for TGR (0-Last): mean ± SD
Protocol: The descriptive statistics of tumor growth rate (TGR) were calculated in a post hoc analysis of the FAS. The TGR estimates the change of the tumor volume during 1 month. This value incorporates the intervals between imaging tests, thus allowing a quantitative and dynamic evaluation of the tumor response. Scatter plots were prepared, and a subgroup analysis was conducted. To calculate TGR, results evaluated by the investigator were used before baseline, and results determined via central evaluation were used after baseline. There were not enough events for multivariate analysis, therefore univariate analysis based on the Cox proportional hazard model was implemented to assess prognostic factors.
The TGR per unit time was calculated in the post-hoc analysis. From past to 0 (baseline), the results of the investigator’s evaluation were used for tumor lesions, after baseline, the results of a central evaluation were used for the tumor lesions. The TGR (mean ± SD) before the first injection was 25.3 ± 35.7%, and the TGR from baseline to the last value was 5.4 ± 10.7% (Fig. 4).

[4] = CLARINET study; cited from earlier work
From the text: No interracial differences were observed regarding drug concentrations in the blood. This inter-study difference in the number of treatment required to achieve steady state is attributed to the associated with the low num ...

[5] = Serum anti-lanreotide antibody test (radioimmunoprecipitation assay); format: in vivo, human
Protocol: as §2
Serum anti-lanreotide antibody levels were determined every 4 weeks for the 24-weeks period following the start of administration, and every 12 weeks thereafter for the 48-weeks. Serum anti-lanreotide antibody levels were centrally determined using a validated radioimmunoprecipitation assay (RIPA; SGS Cephac, Saint-Benoît, France). Anti-lanreotide antibody-positivity was evaluated in two stages: screening test and confirmation test. Antibody titers were determined for samples found to be positive in the confirmation test.

SMILES: CC(C)[C@@H]1NC(=O)[C@H](CCCCN)NC(=O)[C@@H](Cc2c[nH]c3ccccc23)NC(=O)[C@H](Cc2ccc(O)cc2)NC(=O)[C@@H](NC(=O)[C@H](N)Cc2ccc3ccccc3c2)CSSC[C@@H](C(=O)N[C@H](C(N)=O)[C@@H](C)O)NC1=O [lanreotide]
- number of doses to near-steady state ([1]; 120 mg every 4 weeks): 3 doses
- Tmax ([1]; human, in vivo, injection at 20 weeks after the first injection, read-out: median time to reach the maximum serum concentration): 3.8 h
- Tmax ([1]; human, in vivo, serum, PPS 28 patients, read-out: time of Cmax after the first injection (median)): 3.9 h
- Cmax ([1]; human, in vivo, 120 mg every 4 weeks, PPS 28 patients, mean ± SD, read-out: Cmax at 20 weeks after the first injection): 24.2 ± 20.2 ng/mL
- level at 672 h ([1]; human, serum, sc, 120 mg, PPS 28 patients, read-out: serum concentration at 4 weeks after the first injection, before injection (trough, mean ± SD)): 3.1 ± 1.4 ng/mL
- level at 4032 h ([1]; human, serum, sc, 120 mg every 4 weeks, PPS 28 patients, mean ± SD, read-out: trough concentration at 24 weeks after the first injection): 6.1 ± 3.3 ng/mL
- Cmax after the first injection (mean ± SD) ([1]; serum, 120 mg deep s.c., PPS 28 patients, RIA): 20.2 ± 18.2 ng/mL
- Serious AEs ([2]; 6 patients of 32): 18.8%
- Adverse events (any) ([2]; Grade 3): 11 (34.4) Number of patients (%)
- Grade 3 or higher ADRs ([2]; Grade 3 only, 6 patients of 32): 18.8%
- Adverse events (any) ([2]; Grade 4): 2 (6.3) Number of patients (%)
- Adverse events (any) ([2]; Grade 5): 0 Number of patients (%)
- ADR faeces pale ([2]; safety analysis set n=32): 18.8%
- ADR flatulence ([2]; safety analysis set n=32): 12.5%
- ADR injection site induration ([2]; safety analysis set n=32): 28.1%
- Grade 4/5 ADRs and ADRs necessitating discontinuation of the study drug ([2]; safety analysis set n=32): did not occur
- serious ADR pyrexia ([2]; safety analysis set n=32): 3.1%
- patients with AEs related to study drug (ADRs) ([2]; safety analysis set n=32, 27 patients): 84.4%
- patients with AEs ([2]; safety analysis set n=32, 31 patients): 96.9%
- TGR from baseline to the last value (mean ± SD) ([3]; FAS n=28, post hoc, TGR before the first injection 25.3 ± 35.7%): 5.4 ± 10.7%
- TGR (0-Last) ([3]; FAS subgroup Age (years) >65, N=12): 5.44 ± 10.34
- TGR (0-Last) ([3]; FAS subgroup Age (years) ≤65, N=16): 5.41 ± 11.34
- TGR (0-Last) ([3]; FAS subgroup Baseline TGR (%/month) <10, N=13): 3.41 ± 9.43
- TGR (0-Last) ([3]; FAS subgroup Baseline TGR (%/month) ≥10, N=15): 7.17 ± 11.76
- TGR (0-Last) ([3]; FAS subgroup Grade of tumor Grade 1, N=9): 1.65 ± 5.95
- TGR (0-Last) ([3]; FAS subgroup Grade of tumor Grade 2, N=19): 7.21 ± 12.09
- TGR (0-Last) ([3]; FAS subgroup Hepatic tumor load (%) >10 and ≤25, N=6): 8.10 ± 15.47
- TGR (0-Last) ([3]; FAS subgroup Hepatic tumor load (%) >25 and ≤50, N=3): 9.49 ± 9.98
- TGR (0-Last) ([3]; FAS subgroup Hepatic tumor load (%) ≥0 and ≤10, N=18): 4.09 ± 9.60
- TGR (0-Last) ([3]; FAS subgroup Ki67 index (%) >2 and ≤5, N=8): 5.55 ± 8.50
- TGR (0-Last) ([3]; FAS subgroup Ki67 index (%) >5 and <10, N=9): 4.63 ± 11.81
- TGR (0-Last) ([3]; FAS subgroup Ki67 index (%) ≤ 2, N=8): 1.82 ± 6.34
- TGR (0-Last) ([3]; FAS subgroup Sex Female, N=9): 2.71 ± 10.00
- TGR (0-Last) ([3]; FAS subgroup Sex Male, N=19): 6.71 ± 11.07
- TGR (0-Last) ([3]; FAS subgroup primary tumor site Hindgut, N=8): 16.35 ± 11.02
- TGR (0-Last) ([3]; FAS subgroup primary tumor site Other/ Unknown, N=5): 4.23 ± 6.12
- TGR (0-Last) ([3]; FAS subgroup primary tumor site Pancreas, N=12): 0.43 ± 7.83
- TGR (0-Last) ([3]; FAS subgroup prior treatment for NET Absent, N=6): 0.69 ± 5.09
- TGR (0-Last) ([3]; FAS subgroup prior treatment for NET Present, N=22): 6.72 ± 11.55
- TGR (0-Last) ([3]; FAS subgroup progressive disease at baseline Absent, N=17): 1.99 ± 6.50
- TGR (0-Last) ([3]; FAS subgroup progressive disease at baseline Present, N=11): 10.74 ± 13.84
- patients with decrease in TGR at the last value ([3]; population with PD at baseline, 10 of 11 patients): 90.9%
- number of injections to steady state [4]: 6 injections
- patients positive for anti-lanreotide antibodies ([5]; 2 patients, RIPA): 6.3%
- Anti-lanreotide antibody test ([5]; Patient A, Baseline): Negative
- Anti-lanreotide antibody test ([5]; Patient A, Week 4): Negative
- Anti-lanreotide antibody test ([5]; Patient A, Week 8): Negative
- Anti-lanreotide antibody test ([5]; Patient A, Week 12): Negative
- Anti-lanreotide antibody test ([5]; Patient A, Week 16): Positive
- Antibody titer ([5]; Patient A, Week 16): 1/1
- Anti-lanreotide antibody test ([5]; Patient A, Week 20): Negative
- Anti-lanreotide antibody test ([5]; Patient A, Week 24): Negative
- Anti-lanreotide antibody test ([5]; Patient A, Week 36): Positive
- Antibody titer ([5]; Patient A, Week 36): 1/2
- Anti-lanreotide antibody test ([5]; Patient B, Baseline): Negative
- Anti-lanreotide antibody test ([5]; Patient B, Week 4): Negative
- Anti-lanreotide antibody test ([5]; Patient B, Week 8): Positive
- Antibody titer ([5]; Patient B, Week 8): 1/4
- Anti-lanreotide antibody test ([5]; Patient B, Week 12): Positive
- Antibody titer ([5]; Patient B, Week 12): 1/32
- Anti-lanreotide antibody test ([5]; Patient B, Week 16): Positive
- Antibody titer ([5]; Patient B, Week 16): 1/32
- Anti-lanreotide antibody test ([5]; Patient B, Week 20): Positive
- Antibody titer ([5]; Patient B, Week 20): 1/64
- Anti-lanreotide antibody test ([5]; Patient B, Week 24): Positive
- Antibody titer ([5]; Patient B, Week 24): 1/64
- Anti-lanreotide antibody test ([5]; Patient B, Week 36): Positive
- Antibody titer ([5]; Patient B, Week 36): 1/256
- Anti-lanreotide antibody test ([5]; Patient B, Week 48): Positive
- Antibody titer ([5]; Patient B, Week 48): 1/512
